Measurements reported in PMC3482425 (Journal of medicinal chemistry, 2012).

Key:
[1] = tested on: H3K4me1 levels in Calu-6 human lung adenocarcinoma cell line; experiment: Global H3K4me1 levels in Calu-6 cells; assay type: cell-based; conditions: at both 24 and 48 hours
[2] = tested on: global H3K4me2 levels in Calu-6 human lung adenocarcinoma cells; conditions: time point not stated
[3] = tested on: global H3K4me2 levels in Calu-6 human lung adenocarcinoma cells; experiment: cells; conditions: Calu-6, 48 h, read-out: H3K4me2 Fold Increase (48 h), 10 μM, Calu-6 cells
[4] = tested on: SFRP2 in Calu-6 anaplastic epithelial lung carcinoma cells; experiment: Re-expression of SFRP2 in Calu-6 cells; assay type: cell-based, human; conditions: 24 or 48 hours
[5] = tested on: HCAD in Calu-6 anaplastic epithelial lung carcinoma cells; experiment: Re-expression of HCAD in Calu-6 cells; assay type: cell-based, human; conditions: 10 μM
[6] = tested on: LSD1; conditions: read-out: IC50 (LSD1 inhibitor); cited from earlier work

Compound: Cl.Cl.NCCNc1c([N+](=O)[O-])cc(C(F)(F)F)cc1[N+](=O)[O-] [Compound 6]
- Increases in H3K4me1 levels [1]: unremarkable
- changes in H3K4 / lysine methylation in the Calu-6 cell line [2]: no effect

Compound: N=C(NCCCNCCCCCCCNCCCNC(=N)NC(=N)NCCC(c1ccccc1)c1ccccc1)NC(=N)NCCC(c1ccccc1)c1ccccc1 [Compound 2d, (bis)-3,3-(diphenyl)propylbiguanide, reference compound]
- fold induction at 10 µM [3]: 5

Compound: Cl.N=C(N)SCCCN1C(=O)c2ccccc2C1=O [Compound 8]
- Increases in H3K4me1 levels [1]: unremarkable

Compound: Cl.N=C(N)SCCN1C(=O)c2ccccc2C1=O [Compound 5, 2-[N-(phthalimido)]ethyl carbamimidothioate hydrochloride]
- Increases in H3K4me1 levels [1]: unremarkable

Compound: N=C(N)NN [Aminoguanidine]
- effect on SFRP2 levels ([4]; 1 mM): no effect

Compound: CCNCCCCNCCCCNCCCCNCCCCNC/C=C/CNCCCCNCCCCNCCCCNCCCCNCC [PG11144]
- fold increase in HCAD expression, 24 hours [5]: 1.47 fold
- effect on SFRP2 levels ([4]; 5 μM): no effect

Compound: Cl.N=C(N)SCCCCN1C(=O)c2ccccc2C1=O [Compound 9]
- Increases in H3K4me1 levels [1]: unremarkable
